The source of these data is patent US10894038B2, “Indolizine derivatives, composition and methods of use” (Shanghai Fochon Pharmaceutical Co., Ltd., priority 2015, dated 2021).

Assay [1] has as its system potassium oxonate-induced hyperuricemia in rats. As to the kind of experiment: Effect on potassium oxonate-induced hyperuricemia in rats (serum uric acid). Format: in vivo, rat. Particulars: male SD rats, 5 mg/kg oral; for serum uric acid levels, time after dosing 0.5 h: 0.5 h after dosing; for serum uric acid levels, time after dosing 1 h: 1 h after dosing; for serum uric acid levels, time after dosing 2 h: 2 h after dosing; for serum uric acid levels, time after dosing 3 h: 3 h after dosing; for serum uric acid levels, time after dosing 4 h: 4 h after dosing. The method, then:
Healthy male SD rats, weighing 250±20 g, were used. In the experiment, except for 10 rats as normal control group were orally administered with distilled water, the others were orally administered with yeast extract (20 g/kg, qd×5 days). One hour after last administration, all the rats were intraperitoneal injection with 250 mg/kg potassium oxonate while normal control group was treated with an equal volume of 0.5% CMC-Na (injection volume of 2 ml/kg). After one hour, rats were anesthetized with isoflurane and the serum uric acid was determined by uric acid test strip. All the rats were divided into groups by uric acid. The model control group and experimental groups was given orally administration 0.5% CMC-Na or compounds with a dose of 10 ml/kg-bw. Phosphotungstic acid precipitation method was used to detect serum uric acids in inner canthus blood at 0.5, 1, 2, 3, 4 h after administration, respectively. Substantially, observing the effects of compounds on serum uric acids levels and calculating each of groups' AUC and the inhibition of uric acid increased area by the equation as follows: […]
As shown in the equation, AUC0 indicated the AUC of model control group, AUC1 indicated the AUC of therapy group, AUC2 indicated the AUC of normal control group.

Assay [2] addresses URAT1 (Homo sapiens (Human), UniProt Q96S37). As to the kind of experiment: URAT1 in vitro inhibition activity, Method A (14C-uric acid uptake in HEK293-URAT-4 cells). Particulars: 50 μM 14C-uric acid, 10 min uptake. Format: cell-based. The method, then: The potency of the compounds of formula (I) as inhibitors of the URAT1 was determined as follow.
Cell Lines were generated in WuXi AppTec (HEK293-URAT-4: Stable cell line of HEK293 which was transfected with pcDNA3.1-URAT (Human SLC22A12 cDNA Clone, Abgent-DC07943). HEK293-PCDNA-5: Negative control cell of HEK293 which was transfected with pcDNA3.1 empty vector.
Cells were seeded onto 24-well plates at the density of 2.0×10^5 cells per well. The cells were incubated at 37° C., 5% CO2 overnight. After approximately 24 hours culture, cells were used for uptake experiments. The culture medium were removed from the wells and the cells were incubated in 0.4 ml/well of Hank's balanced salt solution (HBSS) for 10 min. HBSS was replaced with 0.18 ml/well fresh HBSS. Compounds were 5 folds serial diluted in DMSO, and then 25 folds diluted in HBSS. Compounds diluted with HBSS (10 μl) were added to relevant well of cell plates, and plates were incubated at 37° C., 5% CO2 for 15 min. The final concentration of DMSO in the assay was 0.2%. 10 μl HBSS containing radioactively labeled Urate (^14C-uric acid) was added to each well. The final concentration of ^14C-uric acid in the assay medium was 50 μM. After 10 min, the assay medium was immediately removed. The cells were washed quickly with 0.5 ml pre-chilled HBSS twice. 0.1 M NaOH (0.4 ml) was added to lyse the cells for at least 20 min. The cell lysate was collected to a scintillation vial, and scintillant (4 ml) was added and the radioactivity was counted by a liquid scintillation counter. Inhibiton % data were calculated using the formula
[formula] CPD: Signal from a well containing a test compound HC (high control): Average of signals from HEK293-URAT-4 cells LC (low control): Average of signals from HEK293-PCDNA-5.

Chain of URAT1 (Q96S37 whole entry): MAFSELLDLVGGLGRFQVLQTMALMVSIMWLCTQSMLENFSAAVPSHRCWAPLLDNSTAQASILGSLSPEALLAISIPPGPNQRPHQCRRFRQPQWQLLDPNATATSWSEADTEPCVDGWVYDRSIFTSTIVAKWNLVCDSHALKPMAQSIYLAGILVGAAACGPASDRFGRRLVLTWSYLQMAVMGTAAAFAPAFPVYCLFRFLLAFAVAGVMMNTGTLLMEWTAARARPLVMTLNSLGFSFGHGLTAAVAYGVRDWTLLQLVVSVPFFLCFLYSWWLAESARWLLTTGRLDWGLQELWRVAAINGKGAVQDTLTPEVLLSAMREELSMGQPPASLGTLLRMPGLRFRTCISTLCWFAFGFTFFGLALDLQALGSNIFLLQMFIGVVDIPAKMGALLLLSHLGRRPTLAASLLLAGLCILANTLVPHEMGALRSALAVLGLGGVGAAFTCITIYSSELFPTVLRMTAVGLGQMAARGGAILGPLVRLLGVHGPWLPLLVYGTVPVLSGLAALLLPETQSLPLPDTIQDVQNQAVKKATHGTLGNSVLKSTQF

Consider `N#Cc1ccc(-c2cnccc2SC2(C(=O)O)CCC2)n2cccc12` [Example 1, 1-((3-(8-Cyanoindolizin-5-yl)pyridin-4-yl)thio)cyclobutane-1-carboxylic acid], for which, in assay [1], the “serum uric acid levels, time after dosing 0.5 h” value was determined as 492.8 ± 82.4 µmol/L; the “serum uric acid levels, time after dosing 1 h” value was found to be 506.0 ± 88.5 µmol/L; the “serum uric acid levels, time after dosing 2 h” value is 407.7 ± 100.7 µmol/L; the “serum uric acid levels, time after dosing 3 h” value was 343.2 ± 84.3 µmol/L. The “serum uric acid levels, time after dosing 4 h” value in assay [1] is 289.8 ± 77.8 µmol/L. This compound had an IC50 in assay [2] of 30 nM.

`CC(C)(Sc1ccncc1-c1ccc(C#N)c2cccn12)C(=O)O` [Example 2, 2-((3-(8-cyanoindolizin-5-yl)pyridin-4-yl)thio)-2-methylpropanoic acid] had an IC50 in assay [2] of 66 nM.

Take `CC(C)(Sc1ccncc1-c1ccc(C#N)c2ccc(Cl)n12)C(=O)O` [Example 3, 2-((3-(3-chloro-8-cyanoindolizin-5-yl)pyridin-4-yl)thio)-2-methylpropanoic acid]: the IC50 in assay [2] was found to be 282 nM.

In assay [2], `CC(C)(Sc1ccncc1-c1ccc(C#N)c2c(Cl)ccn12)C(=O)O` [Example 4, 2-((3-(1-chloro-8-cyanoindolizin-5-yl)pyridin-4-yl)thio)-2-methylpropanoic acid] gave an IC50 of 68 nM.

For the compound `Cc1cc2c(C#N)ccc(-c3cnccc3SC3(C(=O)O)CCC3)n2c1` [Example 5, 1-((3-(8-cyano-2-methylindolizin-5-yl)pyridin-4-yl)thio)cyclobutane-1-carboxylic acid], the midpoint of inhibition in assay [2], the IC50, lay at 110 nM.

In the case of `N#Cc1ccc(-c2cnccc2SC2(C(=O)O)CCC2)n2cc(C(F)(F)F)cc12` [Example 7, 1-((3-(8-cyano-2-(trifluoromethyl)indolizin-5-yl)pyridin-4-yl)thio)cyclobutane-1-carboxylic acid], in assay [1], the “serum uric acid levels, time after dosing 0.5 h” value was determined as 485.3 ± 79.3 µmol/L; the “serum uric acid levels, time after dosing 1 h” value came to 510.0 ± 103.7 µmol/L; the “serum uric acid levels, time after dosing 2 h” value was 460.6 ± 87.4 µmol/L; the “serum uric acid levels, time after dosing 3 h” value came out at 381.3 ± 84.3 µmol/L. Moreover, the “serum uric acid levels, time after dosing 4 h” value in assay [1] amounted to 307.9 ± 71.0 µmol/L. The IC50 in assay [2] is 44 nM.

For orientation: IC50 means the concentration that inhibits the measured activity by half.
